Laboratory results published in patent US20200256882A1, “FLUID PROPERTY MEASUREMENT DEVICES AND METHODS” (Abram Scientific, Inc., priority 2019, published 2020).
Where two headings read alike, the source gives them in different places. Positions of bridges follow the written chain, without caps; N, C: chain ends. Non-standard residues stand in square brackets, D forms with d. Residues, ends and D or L forms follow the SMILES beside them. hArg = N=C(N)NCCCC[C@H](N)C(=O)O; Mpa = O=C(O)CCS

What was measured:
[1] = system: whole blood samples (extrinsic coagulation pathway); test: Thromboelastogram (TEG) coagulation test on disposable test strip; format: biochemical; settings: for peak / maximum thrombin generation (ThrombinPeak): blood samples with increasing concentrations of the anticoagulant (heparin 0 to 3 IU/ml); for clot formation time (R): blood samples with increasing concentrations of the anticoagulant, FIG. 20(a), 21(a); for clot stiffness G: blood samples with increasing concentrations of the substance (cleavable fibrinogen 42 to 231 mg/dL); for ratio of the normalized ThrombinPeak and clot stiffness G: tested samples with increasing anticoagulant concentrations, FIG. 22(d)
Description: The disposable test strips used in this example were incorporated with a reagent comprising of rabbit brain thromboplastin (Pacific Hemostasis Prothrombin Time reagent, Thromboplastin-DS, Product# 29-227-3), calcium chloride (25 mM) and Tween (2% v/v aqueous solution). Prior to the final assembly of the strip, the reagent was incorporated by dispensing the solution on to the exposed hydrophilic surface in the bottom stack, followed by air-drying in a drying box with humidity control at standard room temperature and pressure. The ratio of the volume of the reagent to blood tested in the chamber was maintained at close to 2:1 to ensure successful initiation of the blood coagulation reaction. […] In this example, venous whole blood and finger-stick, capillary whole blood samples from a normal subject were used. In addition, finger-stick, capillary whole blood samples from patients undergoing warfarin therapy at an anticoagulation clinic were used. Following procurement of informed consent under an Institutional Review Board (IRB) approved protocol, phlebotomy was performed to extract the blood sample by venipuncture and the sample was directly dispensed into blood collection tubes containing sodium citrate anticoagulant. The citrated whole blood samples were contrived in vitro to incorporate varying amounts of unfractionated heparin (0 to 3 IU/ml), cleavable fibrinogen (42 to 231 mg/dL), Eptifibatide (GPIIb/IIIa platelet inhibitor, 0 to 12 μg/mL), and tissue plasminogen activator (tPA, 0 to 1.8 nM). Further in some tests, following procurement of informed consent under an Institutional Review Board (IRB) approved protocol, a standard lancet was used to extract blood samples by finger-stick and a standard microliter pipette or dropper was used to pick up the sample for insertion into the disposable test strip. Lastly, in some tests, blood samples were also tested using 2 Haemonetics' TEG-5000 instruments (2 tests per instrument) and their corresponding TEG curve & parameters were recorded, in order to perform side-by-side comparison with the results generated using the disposable test strips. Results: • In this example, the oscillation characteristics (amplitude and phase) of the in-plane vibration mode of a physical element in single-use disposable test strips were measured as a function of frequency in the vicinity of the resonance frequency, and these amplitude & phase frequency scans were monitored periodically to determine different aspects of the blood coagulation cascade. The blood sample upon entering the chamber reacted with the dried reagent and started to coagulate through the extrinsic coagulation pathway. An example of the amplitude and phase frequency scans of an oscillating physical element in a disposable test strip with a blood sample in the chamber undergoing coagulation is shown in FIGS. 13(a) and 13(b), respectively, wherein the amplitude and phase at the resonance frequency peak are seen to decrease in magnitude as the blood coagulation cascade progresses. These amplitude and phase frequency scans monitored periodically over time were used to perform a Thromboelastogram (TEG) test, wherein a characteristic […] shaped viscoelastic curve and parameters were extracted. The TEG-like viscoelastic parameters extracted were clot formation time (R), activated clotting time (ACT), maximum thrombin generation (ThrombinPeak), clot stiffness (G), platelet contraction rate (Plt-Cont), and fibrinolysis rate (Lys-Rate). A mathematical model of the viscoelastic oscillation damping of the physical element, which incorporated the different kinetic processes in the coagulation cascade, was used to fit to data from the amplitude and phase frequency scans measured as a function of time. […]

[2] = system: venous whole blood samples (intrinsic coagulation pathway); test: Low range activated clotting time (ACT) coagulation test on disposable test strip; format: biochemical; settings: citrated venous whole blood spiked in vitro, 0.0 to 3.0 IU/ml; FIG. 11, R^2=0.99
Description: (§1) The disposable test strips used in this example were incorporated with a reagent comprising of kaolin suspended in distilled water, calcium chloride (25 mM) and Tween (2% v/v aqueous solution). Prior to the final assembly of the strip, the reagent was incorporated by dispensing the solution on to the exposed hydrophilic surface in the bottom stack, followed by air-drying in a drying box with humidity control at standard room temperature and pressure. […]
(§2) Results: • In this example, the oscillation characteristics (e.g., amplitude) of the in-plane mode of a physical element in single-use disposable test strips were monitored and recorded before and after introduction of the blood sample, in order to measure the change in viscosity and viscoelasticity of the blood sample as a function of time as it undergoes coagulation. […] An algorithm was used to track the measured oscillation characteristics, viscosity and/or viscoelasticity as a function of time and identify a time to clot formation (measured starting from blood sample insertion time, t=0), in other words known as the activated clotting time (ACT). […] In this specific example, the ACT clotting time measured corresponds to a low-range ACT measurement given the system's sensitivity from 0.0 to 3.0 IU/ml, which corresponds to the low range of heparin therapy used during cardiac and hepatic surgeries.

[3] = system: venous whole blood samples (intrinsic coagulation pathway); test: Activated partial thromboplastin time (aPTT) coagulation test on disposable test strip; format: biochemical; settings: citrated venous whole blood spiked in vitro, 0.0 to 1.0 IU/ml; FIG. 10, R^2=0.92
Description: as §1, with “Actin-FS activated partial thromboplastin time reagent (Siemens Diagnostics, Catalog# B4218-20),” for “kaolin suspended in distilled water,”, “pressure. The ratio of the volume of the reagent to blood tested in the chamber was maintained at close to 2:1 to ensure successful initiation of the blood coagulation reaction.” for “pressure.”
In this example, the oscillation characteristics (e.g., amplitude) of the in-plane mode of a physical element in single-use disposable test strips were monitored and recorded before and after introduction of the blood sample, in order to measure the change in viscosity and viscoelasticity of the blood sample as a function of time as it undergoes coagulation. […] An algorithm was used to track the measured oscillation characteristics, viscosity and/or viscoelasticity as a function of time and identify a time to clot formation (measured starting from blood sample insertion time, t=0), in other words known as the partial thromboplastin time (aPTT). […]

[4] = system: venous whole blood samples (intrinsic coagulation pathway); test: High range activated clotting time (ACT) coagulation test on disposable test strip; format: biochemical; settings: citrated venous whole blood spiked in vitro, 1.0 to 5.0 IU/ml; FIG. 12, R^2=0.95
Description: as §1
as §2, with “high-range” for “low-range”, “1.0” for “0.0”, “5.0” for “3.0”, “high” for “low”

[5] = Description: Ethylene glycol solutions were prepared using de-ionized water in varying concentrations ranging from 0 to 40.38% as shown in Table I. The solutions were prepared in 20 ml de-ionized water and corresponding volume of ethylene glycol solutions concentrations. The fluid sample, when introduced into the assembled disposable test strip through the inlet port (i.e. rectangular opening 207 in FIG. 2(a)), wicked into the chamber under the region of the substrate layer leading up to the suspended beam, followed by the fluid flow being directed through the chamber along the beam length while maintaining contact with the underside of the beam (at or slightly beyond its width), and finally, flowing through the chamber under the region of the substrate layer past the beam leading up to the vent port (i.e. rectangular opening 208 in FIG. 2(a)), which permits air to escape from the chamber as it is loaded with the fluid sample.
[6] = 3 warfarin patient samples, increasing warfarin activity, FIG. 15
[7] = 16.22 % v/v in de-ionized water
[8] = 40.38 % v/v in de-ionized water

With `O=C(NC[C@H]1CN(c2ccc(N3CCOCC3=O)cc2)C(=O)O1)c1ccc(Cl)s1` [Rivaroxaban] the “peak / maximum thrombin generation (ThrombinPeak)” value (shortened to “peak / maximum thrombin generation”) [1] was “reducing”, the “clot formation time (R)” value [1] was “increasing linear trend” and the “clot stiffness G” value [1] was “limited to no effect”. For the same compound, the “ratio of the normalized ThrombinPeak and clot stiffness G” value [1] was “decreasing linear trend”.

With `N=C(N)NCCCC[C@@H]1NC(=O)CCSSC[C@@H](C(N)=O)NC(=O)[C@@H]2CCCN2C(=O)[C@H](Cc2c[nH]c3ccccc23)NC(=O)[C@H](CC(=O)O)NC(=O)CNC1=O` [Eptifibatide] ([Mpa][hArg]GDWPC-NH2; disulfide 1-7) the “rate of platelet contraction (Plt-Cont)” value ([1]; blood samples with increasing concentrations, 0 to 12 μg/mL, FIG. 18(b)) was “decreasing trend”.

For heparin, the “uncalibrated ACT clotting time (low-range)” value [2] was “linear dose response”, the “uncalibrated aPTT clotting time” value [3] was “linear dose response” and the “peak / maximum thrombin generation” value [1] was “decrease”. The “activated clotting time (ACT), time to peak thrombin generation” value ([1]; blood samples with increasing heparin concentrations from 0 to 3 IU/ml, FIG. 16) was “increase” and the “uncalibrated ACT clotting time (high-range)” value [4] was “linear dose response”.

For Dabigatran, the “peak / maximum thrombin generation” value [1] was “limited to no effect”, the “clot formation time (R)” value [1] was “increasing linear trend” and the “clot stiffness G” value [1] was “reducing”. For the same compound, the “ratio of the normalized ThrombinPeak and clot stiffness G” value [1] was “increasing”.

In the case of `CC(=O)CC(c1ccccc1)c1c(O)c2ccccc2oc1=O` (stereo not shown) [warfarin], the maximum thrombin generation ([1]; 3 warfarin patient samples, increasing warfarin activity (PT 17.4, 36.4, 54.4 seconds), FIG. 15) is reported as “steady decrease”, the “time to maximum fibrin formation (TMA)” value [1, 6] is reported as “delayed” and the “time to maximum thrombin generation (analogous to the ACT)” value [1, 6] is reported as “delayed”.

With `OCCO` [Ethylene Glycol, ethylene glycol] the Density ([5]; 10 % v/v in de-ionized water) was 1.035 gm/cc, the Viscosity ([5]; 10 % v/v in de-ionized water) was 1.9903 cP and the Density [5, 7] was 1.052 gm/cc. It also gave a Viscosity [5, 7] of 2.7938 cP, a Density ([5]; 22.5 % v/v in de-ionized water) of 1.065 gm/cc and a Viscosity ([5]; 22.5 % v/v in de-ionized water) of 3.711 cP. The Density [5, 8] was 1.088 gm/cc and the Viscosity [5, 8] was 6.8247 cP.
